Measurements from patent publication US4663309A, “Novel peptide hormones with calcitonin-like activity” (University Patents, Inc., priority 1985, dated 1987).
Entries after “also recorded” stand apart in the source; their conditions may differ. Bridge positions count the residues as written; N and C are the ends. Peptide text beside a SMILES is read from it.

Key:
[1] = test system: rat kidney adenylate cyclase; assay: Peptide stimulation of adenylate cyclase activity in crude kidney cortical membranes; type: biochemical; conditions: 10 min at 37° C.
Protocol: Crude rats brain membranes were prepared as described by Nakamuta et al., supra, using 250-300 gm male Sprague-Dawley rats (Charles River Breeding Laboratories). Membranes were either used immediately or stored at -80° C. for no more than three days. Crude rat kidney membranes used for binding studies and adenylate cyclase assays were prepared as described by Schwartz, K. E., R. C. Orlowski and R. Marcus, Endocrinology 108:831 (1981) with a minor modification. The dissected kidney cortices were first homogenized briefly with a Polytron™ (Brinkman Instruments) at low speed ("5") before complete homogenization with a loose-fitting Wheaton Dounce homogenizer (American Scientific Products, MacGaw Park, IL, pestle "B"). Protein concentrations were determined using Coomassie Brilliant Blue G-250 (Sedmak, J. J. and S. E. Grossberg, Anal. Biochem. 83:544 (1977)) and crystallized BSA (Sigma Chemical Co., St. Louis, MO) as the standard. All preparations of kidney membranes were carried out at 4° C. and the membranes were used immediately for binding studies or adenylate cyclase assays.
Peptide stimulation of adenylate cyclase activity in crude kidney cortical membranes was measured using methods described by Marcus, R. and G. D. Aurbach, Biochim. Biophys. Acta 242:410 (1971). […]

[2] = Surface monolayer studies at the air-water interface; type: physicochemical; conditions: for Collapse pressure of the monolayer: air-water interface, 0.01M Tris.HCl pH 7.4, 0.1M NaCl
Protocol: For surface monolayer studies, a subphase of 0.01M Tris.HCl, pH 7.4 with 0.1M NaCl was prepared with glass-distilled water. Surfactant contaminants were removed by bubbling air through the solution for 10 min, then aspirating the surface of the buffer. Insoluble monolayers were spread from a 2.8×10^-4 M solution of MCT-I in 0.1 mM HCl. The surface pressure π(dyn/cm) of the MCT-I monomolecular layer was measured as a function of area, A (cm^2), using a Lauda™ film balance (Brinkman Instruments, Norwalk, CT). At the air-water interface, MCT-I and SCT-I form insoluble monolayers when spread from concentrated solutions in 0.01M HCl. The force-area (π-A) curves between 5 and 12 dyn/cm are described by the equation π[A-A.infin. (1-κπ)]=nRT where κ is a constant reflecting the compressibility of the monolayer and A.infin. is the limiting molecular area extrapolated to zero surface pressure. The parameters calculated for the two peptides were very similar, κ=0.016 cm/dyn for MCT-I and 0.02 cm/dyn for SCT-I, while A.infin. =362 Å^2 for MCT-I and A.infin. =322 Å^2 for SCT I. However, the collapse pressure of 24 dyn/cm found for the monolayer of MCT-I was much higher than the value of 14 dyn/cm observed for SCT-I.
Surface monolayer studies were conducted as in Example 4. MCT-II forms stable monolayers at the air-water interface when spread from concentrated solutions in 0.01M HCl. The force-area curve (π-A) between 0 dyn/cm and 21 dyn/cm can be described by the equation π(A-A.infin. (1-κπ))=nRT where A.infin. is the limiting molecular area extrapolated to zero surface pressure and κ is a constant reflecting the compressibility of the monolayer. The parameters calculated using the entire π-A curve indicate that MCT-II forms a compact, relatively rigid structure at the air-water interface. A.infin. was 362±10 Å^2 compared with 434±7 Å^2 for MCT-I and 559±18 Å^2 for SCT-I. Monolayers of SCT-I, MCT-I, and MCT-II were successively less compressible with κ having values of 0.03 cm/dyn for SCT-I, 0.02 cm/dyn for MCT-I, and 0.01 cm/dyn for MCT-II. Collapse of the monolayer occurred at 22 dyn/cm which was slightly lower than the 24 dyn/cm observed for MCT-I and higher than for the SCT-I monolayer which collapses at 12 dyn/cm.

[3] = test system: male Sprague-Dawley rats; assay: In vivo hypocalcemic rat bioassay (Example 6)
[4] = target: T1, calcitonin receptors (brain particulate fraction) (Rattus norvegicus, UniProt P32214)
T1 sequence (P32214 25-516): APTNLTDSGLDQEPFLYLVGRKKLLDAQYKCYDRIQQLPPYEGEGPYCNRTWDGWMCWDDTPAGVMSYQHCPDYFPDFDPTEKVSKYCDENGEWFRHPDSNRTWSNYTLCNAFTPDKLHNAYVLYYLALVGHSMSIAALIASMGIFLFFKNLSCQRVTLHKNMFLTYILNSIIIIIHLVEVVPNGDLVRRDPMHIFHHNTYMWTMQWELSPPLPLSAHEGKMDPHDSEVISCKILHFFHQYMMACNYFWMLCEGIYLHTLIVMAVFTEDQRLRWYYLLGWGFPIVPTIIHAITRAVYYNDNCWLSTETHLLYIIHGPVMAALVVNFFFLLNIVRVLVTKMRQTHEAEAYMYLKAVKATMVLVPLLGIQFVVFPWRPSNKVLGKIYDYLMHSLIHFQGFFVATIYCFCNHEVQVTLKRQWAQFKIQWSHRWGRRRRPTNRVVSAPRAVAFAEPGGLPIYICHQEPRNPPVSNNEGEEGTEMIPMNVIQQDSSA

[5] = calculated using the entire π-A curve (Example 7)
[6] = π-A curve between 5 and 12 dyn/cm (Example 4)

Collapse pressure of the monolayer [2]	A∞, limiting molecular area extrapolated to zero surface pressure [2, 5]	κ, compressibility constant of the monolayer [2, 5]	A∞, limiting molecular area extrapolated to zero surface pressure [2, 6]	κ, compressibility constant of the monolayer [2, 6]	IC50 [4]	Structure (SMILES)	Stimulation of adenylate cyclase over basal activity [1]	Activity relative to PCT ([3]; hypocalcemic response in rats, b98 covers in vitro and in vivo activity)	In vivo potency relative to SCT-I (fold less potent) ([3]; subcutaneous, plasma calcium 1 hour after injection)
22 dyn/cm	362±10 Å^2	0.01 cm/dyn	–	–	–	CC(C)C[C@H](NC(=O)[C@H](CCCCN)NC(=O)[C@H](CCC(N)=O)NC(=O)[C@H](CC(C)C)NC(=O)[C@H](CCC(N)=O)NC(=O)[C@H](CCC(N)=O)NC(=O)[C@H](CC(C)C)NC(=O)[C@H](CC(C)C)NC(=O)[C@@H]1CSSC[C@H](N)C(=O)N[C@@H](CO)C(=O)N[C@@H](CC(N)=O)C(=O)N[C@@H](CC(C)C)C(=O)N[C@@H](CO)C(=O)N[C@@H]([C@@H](C)O)C(=O)N1)C(=O)N[C@@H](CC(C)C)C(=O)N[C@@H](CCC(N)=O)C(=O)N[C@@H](CCCCN)C(=O)N[C@@H](CC(C)C)C(=O)N[C@@H](CCCCN)C(=O)N[C@@H](CCC(N)=O)C(=O)N[C@@H](Cc1ccc(O)cc1)C(=O)N1CCC[C@H]1C(=O)N[C@@H](CCCNC(=N)N)C(=O)N[C@H](C(=O)N[C@@H](CC(N)=O)C(=O)N[C@H](C(=O)NCC(=O)N[C@@H](CO)C(=O)NCC(=O)N[C@H](C(=O)N1CCC[C@H]1C(N)=O)[C@@H](C)O)[C@@H](C)O)[C@@H](C)O [MCT-II] (H-CSNLSTCLLQQLQKLLQKLKQYPRTNTGSGTP-NH2; disulfide 1-7; N-terminus assumed)	stimulated adenylate cyclase over basal activity	–	–
24 dyn/cm	434±7 Å^2	0.02 cm/dyn	362 Å^2	0.016 cm/dyn	17 nM	CC(C)C[C@@H]1NC(=O)[C@H](CC(N)=O)NC(=O)CNC(=O)[C@@H](N)CSSC[C@@H](C(=O)N[C@@H](CC(C)C)C(=O)N[C@@H](CC(C)C)C(=O)N[C@@H](CCC(N)=O)C(=O)N[C@@H](CCC(N)=O)C(=O)N[C@@H](Cc2c[nH]c3ccccc23)C(=O)N[C@@H](CCC(N)=O)C(=O)N[C@@H](CCCCN)C(=O)N[C@@H](CC(C)C)C(=O)N[C@@H](CC(C)C)C(=O)N[C@@H](CCC(N)=O)C(=O)N[C@@H](CCCCN)C(=O)N[C@@H](CC(C)C)C(=O)N[C@@H](CCCCN)C(=O)N[C@@H](CCC(N)=O)C(=O)N[C@@H](CC(C)C)C(=O)N2CCC[C@H]2C(=O)N[C@@H](CCCNC(=N)N)C(=O)N[C@H](C(=O)N[C@@H](CC(N)=O)C(=O)N[C@H](C(=O)NCC(=O)N[C@@H](CO)C(=O)NCC(=O)N[C@H](C(=O)N2CCC[C@H]2C(N)=O)[C@@H](C)O)[C@@H](C)O)[C@@H](C)O)NC(=O)[C@H]([C@@H](C)O)NC(=O)[C@H](CO)NC1=O [MCT-I] (H-CGNLSTCLLQQWQKLLQKLKQLPRTNTGSGTP-NH2; disulfide 1-7)	–	approximately as active as PCT; also recorded: equivalent to that of PCT	about 10 fold
